Reference: patent US20140187638A1, “PHENYLBUTYRATE IN RECTAL FORM FOR THE TREATMENT OF A MOTOR NEURON DISEASE OR A METABOLIC DISEASE” (GMP-ORPHAN, priority 2011, published 2014)

What was measured:
[1] = after per os ingestion; cited from earlier work
[2] = test system: patients with SMA type II; conditions: oral, 9 weeks, cited from earlier work
patients with SMA = conditions: oral, 500 mg/kg/day, intermittent regimen, 13 weeks, 107 patients; cited from earlier work
juvenile minipigs = experiment: 13-week repeat-dose toxicity study, rectal administration; format: in vivo; conditions: 13 weeks, 5 doses per day, 550 to 13,750 mg/kg
Experimental: The aim of this study was to test the toxicity of repeated administrations of sodium phenylbutyrate (NaPB) by the intended human route in juvenile minipigs (13-week study, total dose divided into 5 doses per day). Minipig is a model of interest for studies of local tolerance due to similarities between properties of the skin of pigs of the one of humans.
A 13-week repeat-dose toxicity study was conducted in juvenile minipigs using the rectal administration route of sodium phenylbutyrate (NaPB). One group was treated […] at the pharmacological dose of NaPB. One group received oral NaPB (total dose divided into 5 doses per day) for comparison.
The study included safety pharmacology evaluation, toxicokinetic (TK) determination, as well as a four-week recovery period.
Earliest dosing was started at 7 days of age. Oral gavage (5 times daily at 3-4 hour intervals) and rectal administration (5 times daily at 3-4 hour intervals) were performed during 13 weeks. A recovery period of 28 days was performed.
The recovery animals were housed for additional 28 days after dosing. The piglets were weighed twice weekly throughout the study. Growth measurements were performed twice weekly. Ophthalmology, electrocardiography were done the last day of treatment. […] The parameters measured met standard guidelines. […]

SMA = conditions: in vivo; cited from earlier work

Compound | half-life [1] [min] | scores on a motor scale ([2]; 500 mg/kg/day in five doses, 7 days on and 7 days off, 10 patients) | side effects ([2]; 500 mg/kg/day) | efficacy (patients with SMA) | tolerability (patients with SMA) | toxicity (juvenile minipigs) | efficacy (SMA)
O=C([O-])CCCc1ccccc1.[Na+] [4-phenylbutyrate, sodium 4-phenylbutyrate] | 46.2 | significant increase | no major side effect | not shown to be effective | well tolerated | No toxicity was observed | 
CCCC(CCC)C(=O)O [Valproic acid, valproic acid] |  |  |  |  |  |  | do not seem to have given significant results
NC(=O)NO [hydroxyurea] |  |  |  |  |  |  | do not seem to have given significant results
